In patent publication US20070149525A1, “Methods of treating amyloidosis using aryl-cyclopropyl derivative aspartyl protease inhibitors” (priority 2005, published 2007):
Like-named read-outs stand apart in the source and are kept apart here.

Test: In vitro permeability across MDCK cell monolayer
Assay type: in vitro ADME, Canine
Conditions: dog, test compound 5 μM, 2 h at 37° C., apical to basolateral, read-out: Permeability Forward A > B
Procedure: Compounds were evaluated for permeability across a monolayer of Madin-Darby Canine Kidney (MDCK) cells in a transwell device following culturing for 4 days. […] A 0.5 mL of cell suspension (400,000 cells/mL) was placed on membrane and a 1.5 mL media in the bottom wells on day 1. On day 2 and day 3, cells were fed with new media. […] Media was removed from upper chambers and filled with mHBSS with or without CspA, and incubated 30 min at 37° C. with light shaking. Donor chambers were emptied, and filled with test compound at 5 μM in mHBSS. […] Plates were incubated for 2 h at 37° C. with shaking. After 2 h, both the donor and receiver wells were sampled. The bottom chambers were read in a fluorometer to assess LY leakage, and then the media from all wells were assayed by LC/MS/MS to determine compound levels.

Row | SMILES | Papp A→B at 2 h, 5 μM (MDCK) [×10⁻⁶ cm/s] | Papp A→B at 2 h, 5 μM [×10⁻⁶ cm/s]
1 | CC(=O)NC(Cc1cc(F)cc(F)c1)C(O)CNC1(n2cccn2)CC1Cc1ccccc1 (single isomer, unassigned) [23.30 Diastereomer A, N-(4-(2-benzyl-1-(1H-pyrazol-1-yl)cyclopropylamino)-1-(3,5-difluorophenyl)-3-hydroxybutan-2-yl)acetamide] | 8.48 | 
2 | CC(C)(C)Cc1cc(C2(NCC(O)C(Cc3cc(F)cc(F)c3)NC(=O)CF)CC2)on1 (stereo not drawn) [Example 23.10, N-(4-(1-(3-neopentylisoxazol-5-yl)cyclopropylamino)-1-(3,5-difluorophenyl)-3-hydroxybutan-2-yl)-2-fluoroacetamide] |  | 8.26
3 | CC(=O)NC(Cc1cc(F)cc(F)c1)C(O)CNC1(n2cccn2)C2CCCC21 (stereo not drawn) [Example 23.14, N-(4-(6-(1H-pyrazol-1-yl)bicyclo[3.1.0]hexan-6-ylamino)-1-(3,5-difluorophenyl)-3-hydroxybutan-2-yl)acetamide] | 20.4 | 
4 | CC(=O)NC(Cc1cc(F)cc(F)c1)C(O)CNC1(c2cc(-n3cccn3)cs2)CC1 (stereo not drawn) [Example 23.15, N-(4-(1-(4-(1H-pyrazol-1-yl)thiophen-2-yl)cyclopropylamino)-1-(3,5-difluorophenyl)-3-hydroxybutan-2-yl)acetamide] | 12.1 | 
5 | CC(=O)NC(Cc1cc(F)cc(F)c1)C(O)CNC1(c2cncc(CC(C)(C)C)c2)CC1 (stereo not drawn) [Example 23.16, N-(1-(3,5-difluorophenyl)-3-hydroxy-4-(1-(5-neopentylpyridin-3-yl)cyclopropylamino)butan-2-yl)acetamide] | 13.5 | 
6 | CC(=O)NC(Cc1cc(F)cc(F)c1)C(O)CNC1(c2csc(CC(C)(C)C)n2)CC1 (stereo not drawn) [Example 23.19, N-(4-(1-(2-neopentylthiazol-4-yl)cyclopropylanimo)1-(3,5-difluorophenyl)-3-hydroxybutan-2-yl)acetamide] |  | 26.7
7 | CC(=O)NC(Cc1cc(F)cc(F)c1)C(O)CNC1(c2cn(-c3ccsc3)nn2)CC1 (stereo not drawn) [Example 23.20, N-(1-(3,5-difluorophenyl)-3-hydroxy-4-(1-(1-(thiophen-3-yl)-1H-1,2,3-triazol-4-yl)cyclopropylamino)butan-2-yl)acetamide] | 12.1 | 
8 | CC(=O)NC(Cc1cc(F)cc(F)c1)C(O)CNC1(c2csc(C(C)(C)C)c2)CC1 (stereo not drawn) [Example 23.21, N-(4-(1-(5-tert-butylthiophen-3-yl)cyclopropylamino)-1-(3,5-difluorophenyl)-3-hydroxybutan-2-yl)acetamide] | 10 | 
9 | CC(=O)NC(Cc1cc(F)cc(F)c1)C(O)CNC1(c2cccc(-n3cccn3)c2)CC1C (stereo not drawn) [Example 23.23, N-(4-(1-(3-(1H-pyrazol-1-yl)phenyl)-2-methylcyclopropylamino)-1-(3,5-difluorophenyl)-3-hydroxybutan-2-yl)acetamide] | 11.1 | 
10 | CC(=O)NC(Cc1cc(F)cc(F)c1)C(O)CNC1(c2cccc(C3CCOC3)c2)CC1 (stereo not drawn) [Example 23.24, N-(1-(3,5-difluorophenyl)-3-hydroxy-4-(1-(3-(tetrahydrofuran-3-yl)phenyl)cyclopropylamino)butan-2-yl)acetamide] | 13.2 | 
11 | C=C(c1cccc(C2(NCC(O)C(Cc3cc(F)cc(F)c3)NC(C)=O)CC2)c1)C(F)(F)F (stereo not drawn) [Example 23.26, N-(1-(3,5-difluorophenyl)-3-hydroxy-4-(1-(3-(3,3,3-trifluoroprop-1-en-2-yl)phenyl)cyclopropylamino)butan-2-yl)acetamide] | 10.3 | 
12 | CC(=O)NC(Cc1cc(F)cc(F)c1)C(O)CNC1(c2cncc(-n3cccn3)c2)CC1 (stereo not drawn) [Example 23.29, N-(4-(1-(5-(1H-pyrazol-1-yl)pyridin-3-yl)cyclopropylamino)-1-(3,5-difluorophenyl)-3-hydroxybutan-2-yl)acetamide] | 8.62 | 
13 | CC(=O)NC(Cc1cc(F)cc(F)c1)C(O)CNC1(c2cccc(C3CC=CCO3)c2)CC1 (stereo not drawn) [Example 23.31, N-(1-(3,5-difluorophenyl)-4-(1-(3-(3,6-dihydro-2H-pyran-2-yl)phenyl)cyclopropylamino)-3-hydroxybutan-2-yl)acetamide] | 10.7 | 
14 | CC(=O)NC(Cc1cc(F)cc(F)c1)C(O)CNC1(c2cccc(N3CCOCC3)c2)CC1 (stereo not drawn) [Example 23.32, N-(1-(3,5-difluorophenyl)-3-hydroxy-4-(1-(3-morpholinophenyl)cyclopropylamino)butan-2-yl)acetamide] | 12.1 | 
15 | CC(=O)NC(Cc1cc(F)cc(F)c1)C(O)CNC1(c2cccc(C3CCOCOC3)c2)CC1 (stereo not drawn) [Example 23.34, N-(4-(1-(3-(1,3-dioxepan-5-yl)phenyl)cyclopropylamino)-1-(3,5-difluorophenyl)-3-hydroxybutan-2-yl)acetamide] | 12.1 | 
16 | CC(=O)NC(Cc1cc(F)cc(F)c1)C(O)CNC1(c2c(F)ccc(-n3cccn3)c2F)CC1 (stereo not drawn) [Example 23.35, N-(4-(1-(2,6-difluoro-3-(1H-pyrazol-1-yl)phenyl)cyclopropylamino)-1-(3,5-difluorophenyl)-3-hydroxybutan-2-yl)acetamide] | 19.4 | 
17 | CC(=O)NC(Cc1cc(F)cc(F)c1)C(O)CNC1(c2nc(CC(C)(C)C)cs2)CC1 (stereo not drawn) [Example 23.36, N-(1-(3,5-difluorophenyl)-3-hydroxy-4-(1-(4-neopentylthiazol-2-yl)cyclopropylamino)butan-2-yl)acetamide] |  | 11.3
18 | CC(=O)NC(Cc1cc(F)cc(F)c1)C(O)CNC1(c2cnn(C(C)(C)C)c2)CC1 (stereo not drawn) [Example 23.37, N-(4-(1-(1-tert-butyl-1H-pyrazol-4-yl)cyclopropylamino)-1-(3,5-difluorophenyl)-3-hydroxybutan-2-yl)acetamide] | 7.11 | 
19 | O=C(Cc1ccccc1)NC(Cc1cc(F)cc(F)c1)C(O)CNC1(c2cccc(-n3cccn3)c2)CC1 (stereo not drawn) [Example 23.38, N-(4-(1-(3-(1H-pyrazol-1-yl)phenyl)cyclopropylamino)-1-(3,5-difluorophenyl)-3-hydroxybutan-2-yl)-2-phenylacetamide] | 22.1 | 
20 | COCC(=O)NC(Cc1cc(F)cc(F)c1)C(O)CNC1(c2cccc(-n3cccn3)c2)CC1 (stereo not drawn) [Example 23.40, N-(4-(1-(3-(1H-pyrazol-1-yl)phenyl)cyclopropylamino)-1-(3,5-difluorophenyl)-3-hydroxybutan-2-yl)-2-methoxyacetamide] | 12.9 | 
21 | CCOCC(=O)NC(Cc1cc(F)cc(F)c1)C(O)CNC1(c2cccc(-n3cccn3)c2)CC1 (stereo not drawn) [Example 23.41, N-(4-(1-(3-(1H-pyrazol-1-yl)phenyl)cyclopropylamino)-1-(3,5-difluorophenyl)-3-hydroxybutan-2-yl)-2-ethoxyacetamide] | 9.86 | 
22 | COCCOCC(=O)NC(Cc1cc(F)cc(F)c1)C(O)CNC1(c2cccc(-n3cccn3)c2)CC1 (stereo not drawn) [Example 23.44, N-(4-(1-(3-(1H-pyrazol-1-yl)phenyl)cyclopropylamino)-1-(3,5-difluorophenyl)-3-hydroxybutan-2-yl)-2-(2-methoxyethoxy)acetamide] | 13.3 | 
23 | COC(=O)NC(Cc1cc(F)cc(F)c1)C(O)CNC1(c2cccc(-n3cccn3)c2)CC1 (stereo not drawn) [Example 23.45, methyl 4-(1-(3-(1H-pyrazol-1-yl)phenyl)cyclopropylamino)-1-(3,5-difluorophenyl)-3-hydroxybutan-2-ylcarbamate] | 17 | 
24 | CC(=O)NC(Cc1cc(F)cc(F)c1)C(O)CNC1(c2cccc(N3CCSCC3)c2)CC1 (stereo not drawn) [Example 23.48, N-(1-(3,5-difluorophenyl)-3-hydroxy-4-(1-(3-thiomorpholinophenyl)cyclopropylamino)butan-2-yl)acetamide] | 10.9 | 
25 | Cc1cc(CC(=O)NC(Cc2cc(F)cc(F)c2)C(O)CNC2(c3cccc(-n4cccn4)c3)CC2)no1 (stereo not drawn) [Example 23.49, N-(4-(1-(3-(1H-pyrazol-1-yl)phenyl)cyclopropylamino)-1-(3,5-difluorophenyl)-3-hydroxybutan-2-yl)-2-(5-methylisoxazol-3-yl)acetamide] | 10.4 | 
26 | CC(=O)NC(Cc1cc(F)cc(F)c1)C(O)CNC1(c2cccc(C(C)(C)C(F)F)c2)CC1 (stereo not drawn) [Example 23.50, N-(4-(1-(3-(1,1-difluoro-2-methylpropan-2-yl)phenyl)cyclopropylamino)-1-(3,5-difluorophenyl)-3-hydroxybutan-2-yl)acetamide] | 12.8 | 
27 | CC(=O)NC(Cc1cc(F)cc(F)c1)C(O)CNC1(c2cccc(C(F)C(C)(C)F)c2)CC1 (stereo not drawn) [Example 23.51, N-(4-(1-(3-(1,2-difluoro-2-methylpropyl)phenyl)cyclopropylamino)-1-(3,5-difluorophenyl)-3-hydroxybutan-2-yl)acetamide] | 12.7 | 
28 | COCC(C)(C)c1cccc(C2(NCC(O)C(Cc3cc(F)cc(F)c3)NC(C)=O)CC2)c1 (stereo not drawn) [Example 23.52, N-(1-(3,5-difluorophenyl)-3-hydroxy-4-(1-(3-(1-methoxy-2-methylpropan-2-yl)phenyl)cyclopropylamino)butan-2-yl)acetamide] | 14.7 | 
29 | CC(=O)NC(Cc1cc(F)cc(F)c1)C(O)CNC1(c2cccc(C3COCO3)c2)CC1 (stereo not drawn) [Example 23.53, N-(4-(1-(3-(1,3-dioxolan-4-yl)phenyl)cyclopropylamino)-1-(3,5-difluorophenyl)-3-hydroxybutan-2-yl)acetamide] | 12.7 | 
30 | CC(=O)NC(Cc1cc(F)cc(F)c1)C(O)CNC1(c2ncc(C(C)(C)C)o2)CC1 (stereo not drawn) [Example 23.56, N-(4-(1-(5-tert-butyloxazol-2-yl)cyclopropylamino)-1-(3,5-difluorophenyl)-3-hydroxybutan-2-yl)acetamide] | 20.4 | 
